Target: T1, beta-site amyloid cleaving enzyme (BACE)1 (Homo sapiens, UniProt P56817)
T1 construct: gene BACE1
Assay: BACE1 FRET assay kit (Panvera), Swedish-mutant peptide substrate
Assay type: biochemical

T1 sequence (P56817 46-457): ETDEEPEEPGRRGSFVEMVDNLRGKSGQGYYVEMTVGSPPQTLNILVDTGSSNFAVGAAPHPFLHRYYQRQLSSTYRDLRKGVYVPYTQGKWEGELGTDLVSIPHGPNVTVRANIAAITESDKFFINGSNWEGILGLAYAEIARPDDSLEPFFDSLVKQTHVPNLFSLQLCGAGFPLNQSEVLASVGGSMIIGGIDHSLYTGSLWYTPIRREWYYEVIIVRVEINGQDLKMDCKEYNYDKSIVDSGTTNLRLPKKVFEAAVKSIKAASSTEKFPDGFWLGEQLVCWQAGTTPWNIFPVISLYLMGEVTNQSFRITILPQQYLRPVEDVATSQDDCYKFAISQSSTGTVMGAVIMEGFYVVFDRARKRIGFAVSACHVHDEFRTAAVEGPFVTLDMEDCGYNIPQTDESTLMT

- IC50: 5.7 ± 1.09 µM
SMILES: COc1ccc(-c2oc3c(CC=C(C)C)c(O)cc(O)c3c(=O)c2O)cc1 [ICT, Icaritin]
